Here are results for 19 compounds from PMC9897792, “Discovery of novel 2-(4-(benzyloxy)-5-(hydroxyl) phenyl) benzothiazole derivatives as multifunctional MAO-B inhibitors for the treatment of Parkinson’s disease” (Journal of Enzyme Inhibition and Medicinal Chemistry, 2023).

The target of data set [1] is T1, MAO-A (Homo sapiens, UniProt P21397).
T1 sequence (P21397 1-527): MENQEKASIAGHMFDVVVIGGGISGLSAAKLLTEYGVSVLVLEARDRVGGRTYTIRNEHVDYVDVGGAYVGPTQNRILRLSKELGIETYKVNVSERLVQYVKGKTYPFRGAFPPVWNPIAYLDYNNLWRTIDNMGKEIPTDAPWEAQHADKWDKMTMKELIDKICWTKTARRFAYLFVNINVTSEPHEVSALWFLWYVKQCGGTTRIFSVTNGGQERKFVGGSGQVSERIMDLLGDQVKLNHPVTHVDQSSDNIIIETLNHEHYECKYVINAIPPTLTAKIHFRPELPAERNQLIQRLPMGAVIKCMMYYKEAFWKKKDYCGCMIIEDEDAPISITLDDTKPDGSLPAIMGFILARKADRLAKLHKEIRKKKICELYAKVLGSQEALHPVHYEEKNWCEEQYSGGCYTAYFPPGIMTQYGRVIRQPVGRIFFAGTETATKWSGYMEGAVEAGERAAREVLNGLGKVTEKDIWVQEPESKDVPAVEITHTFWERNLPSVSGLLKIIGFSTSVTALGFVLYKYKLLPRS
As to the kind of experiment: MAO-A inhibition, kynuramine method. The note with it: for inhibition at 10 µM: read-out: %Inhibition MAO-A. The format is biochemical.

In data set [2] the target is T2, MAO-B (Homo sapiens, UniProt P27338).
T2 sequence (P27338 1-520): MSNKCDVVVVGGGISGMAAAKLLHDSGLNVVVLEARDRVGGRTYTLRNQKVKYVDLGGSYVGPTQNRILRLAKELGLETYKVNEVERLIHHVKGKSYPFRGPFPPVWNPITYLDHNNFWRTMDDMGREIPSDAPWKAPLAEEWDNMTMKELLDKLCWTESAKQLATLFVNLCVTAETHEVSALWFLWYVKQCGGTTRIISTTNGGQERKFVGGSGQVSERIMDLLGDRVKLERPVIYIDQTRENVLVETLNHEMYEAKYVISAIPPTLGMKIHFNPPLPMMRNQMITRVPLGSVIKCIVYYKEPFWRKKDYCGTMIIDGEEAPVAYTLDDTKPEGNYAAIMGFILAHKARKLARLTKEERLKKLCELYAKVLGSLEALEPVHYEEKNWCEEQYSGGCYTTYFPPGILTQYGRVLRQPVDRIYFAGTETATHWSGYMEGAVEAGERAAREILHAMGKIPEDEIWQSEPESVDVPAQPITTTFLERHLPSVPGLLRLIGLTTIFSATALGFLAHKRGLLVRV
Put plainly: MAO-B inhibition, kynuramine method. The format is biochemical.

A short description of data set [3]: Oxygen radical absorbance capacity assay with fluorescein (ORAC-FL). The note with it: Trolox as standard. As for the experimental part:
Oxygen radical absorbance capacity assay which used fluorescein (ORAC-FL) was performed to measure the antioxidant activities of 2-(4-(benzyloxy)-5-(hydroxyl) phenyl) benzothiazole derivatives. […] It reflected that introduction of alkyl substituents on benzyloxy ring was more beneficial for the improvement of in vitro antioxidant activity. However, the position and number of substituents seem to have little influence on the antioxidative activities.
Test compounds solution (20 µL, 10 µM) and fluorescein solution (120 µL, 250 nM) were added to a black 96-wells plate in order. The mixture was incubated for 15 min at 37 °C. Then, AAPH solution (60 µL, 40 mM) was added through an automatic sampler. The fluorescence was recorded with excitation and emission wavelengths at 485 and 535 nm on the multifunctional enzyme marker (Thermo Scientific), and the area under the curve (AUC) was calculated automatically. Trolox was used as a reference, and the antioxidant activities of the compounds were expressed as Trolox equivalent. The test compound solution was replaced with PBS (20 µL) in blank well. The antioxidant activities of the test compounds were calculated by the formula: [(AUCsample − AUCblank)/(AUCtrolox − AUCblank)] × [(Trolox concentration/test sample concentration)].

The conditions of data set [4]: PAMPA-BBB literature values ref 1 (Di et al., Eur. J. Med. Chem. 2003, 38, 223); cited from earlier work.
The target of data set [5] is T2, MAO-B. As to the kind of experiment: Reversibility study of MAO-B inhibition by dialysis method. The format is biochemical. The note with it: for MAO-B inhibitory mode: classified by MAO-B catalytic activity in dialysis group; for MAO-B catalytic activity, undialysis group / MAO-B catalytic activity, dialysis group: test compound 4 × IC50; for MAO-B catalytic activity, undialysis group: 4 °C for 24 h without dialysis; for MAO-B catalytic activity, dialysis group: dialysis 24 h.
Method: The mixture was incubated at 37 °C for 30 min and transferred to dialysis bag (MWCO: 10 000, flattening width: 24 mm, length: 8–10 cm). Then, this dialysis bag was placed in 200 ml PBS for 24 h, and the outer PBS was replaced with fresh at 3 and 7 h, respectively. As for the undialysis group, the mixture was placed at 4 °C for 24 h. After dialysis, the mixtures (40 µL) in the dialysis bag were taken out to measure the catalytic activity, and the test method was similar with the inhibition experiment of MAOs. […] The test compound solution was replaced with PBS buffer at the same volume in the blank group.

Setting [6] is: at the concentration of 10.0 μM, n.a. = no active, percent inhibition <5.0%.

“And” between values parts separate entries of the source, which are not always exact repeats. Equal values may be shown once. Read-outs that look alike come from different tables or passages of the source.

As to `Oc1cc(OCc2ccccc2)ccc1-c1nc2ccccc2s1` [3a, 2-(Benzo[d]thiazol-2-yl)-5-(benzyloxy)phenol], the inhibition at 10 µM in data set [1] (setting [6]) came to 24.83 ± 0.11%. The compound further showed an IC50 in data set [2] of 3930 ± 259 nM. This compound returned an ORAC in data set [3] of 2.13 ± 0.05 Trolox equivalents.
Turning to `Oc1cc(OCc2ccccc2F)ccc1-c1nc2ccccc2s1` [3b, 2-(Benzo[d]thiazol-2-yl)-5-((2-fluorobenzyl)oxy)phenol], in data set [1] (setting [6]), the inhibition at 10 µM worked out at 14.25 ± 0.07%. The same compound displayed an IC50 in data set [2] of 1670 ± 146 nM. Further, the ORAC in data set [3] was found to be 2.32 ± 0.02 Trolox equivalents.
For `Oc1cc(OCc2ccccc2Cl)ccc1-c1nc2ccccc2s1` [3c, 2-(Benzo[d]thiazol-2-yl)-5-((2-chlorobenzyl)oxy)phenol], in that order: 19.58 ± 0.06%, 2900 ± 31 nM and 2.26 ± 0.09 Trolox equivalents.
On the same counts, the results for `Oc1cc(OCc2cccc(F)c2)ccc1-c1nc2ccccc2s1` [3d, 2-(Benzo[d]thiazol-2-yl)-5-((3-fluorobenzyl)oxy)phenol] are 18.41 ± 0.05%, 526 ± 24 nM and 2.24 ± 0.10 Trolox equivalents.
On the same counts, the results for `Oc1cc(OCc2cccc(Cl)c2)ccc1-c1nc2ccccc2s1` [3e, 2-(Benzo[d]thiazol-2-yl)-5-((3-chlorobenzyl)oxy)phenol] are 31.6 ± 0.28%, 1050 ± 83 nM and 2.31 ± 0.07 Trolox equivalents.
As for `Oc1cc(OCc2cccc(C(F)(F)F)c2)ccc1-c1nc2ccccc2s1` [3f, 2-(Benzo[d]thiazol-2-yl)-5-((3-(trifluoromethyl)benzyl)oxy)phenol], in data set [2], half-maximal inhibition (IC50) required 951 ± 62 nM. Also, the ORAC in data set [3] came to 2.25 ± 0.07 Trolox equivalents.
`COc1cccc(COc2ccc(-c3nc4ccccc4s3)c(O)c2)c1` [3g, 2-(Benzo[d]thiazol-2-yl)-5-((3-methoxybenzyl)oxy)phenol] came in with an IC50 in data set [2] of 1520 ± 97 nM. For the same compound, the ORAC in data set [3] was 2.30 ± 0.04 Trolox equivalents.
With `Oc1cc(OCc2ccc(Cl)cc2)ccc1-c1nc2ccccc2s1` [3i, 2-(Benzo[d]thiazol-2-yl)-5-((4-chlorobenzyl)oxy)phenol], in data set [1] (setting [6]), the inhibition at 10 µM is 47.14 ± 0.21%. Moreover, the midpoint of inhibition in data set [2], the IC50, lay at 314 ± 10 nM. The ORAC in data set [3] turned out to be 2.23 ± 0.06 Trolox equivalents.
For `Cc1ccc(COc2ccc(-c3nc4ccccc4s3)c(O)c2)cc1` [3j, 2-(Benzo[d]thiazol-2-yl)-5-((4-methylbenzyl)oxy)phenol], in that order: 34.32 ± 0.09%, 1940 ± 78 nM and 2.39 ± 0.14 Trolox equivalents.
For the compound `CC(C)(C)c1ccc(COc2ccc(-c3nc4ccccc4s3)c(O)c2)cc1` [3k, 2-(Benzo[d]thiazol-2-yl)-5-((4-(tert-butyl)benzyl)oxy)phenol], half-maximal inhibition in data set [2] (IC50) was put at 3407 ± 32 nM. The ORAC in data set [3] was 2.48 Trolox equivalents and 2.48 ± 0.13 Trolox equivalents.
For the compound `O=[N+]([O-])c1ccc(COc2ccc(-c3nc4ccccc4s3)c(O)c2)cc1` [3l, 2-(Benzo[d]thiazol-2-yl)-5-((4-nitrobenzyl)oxy)phenol], in data set [1] (setting [6]), the inhibition at 10 µM is 25.16 ± 0.13%. The same compound returned an IC50 in data set [2] of 784 ± 28 nM. The ORAC in data set [3] is 2.14 ± 0.06 Trolox equivalents.
For the compound `Oc1cc(OCc2ccc(F)c(F)c2)ccc1-c1nc2ccccc2s1` [3m, 2-(Benzo[d]thiazol-2-yl)-5-((3,4-difluorobenzyl)oxy)phenol], in data set [1] (setting [6]), the inhibition at 10 µM came to 47.52 ± 0.36%. This compound displayed an IC50 in data set [2] of 423 ± 9 nM. The same compound had an ORAC in data set [3] of 2.24 ± 0.11 Trolox equivalents.
On to `Oc1cc(OCc2ccc(Cl)c(Cl)c2)ccc1-c1nc2ccccc2s1` [3n, 2-(Benzo[d]thiazol-2-yl)-5-((3,4-dichlorobenzyl)oxy)phenol], for which the results for the IC50 in data set [1] and in data set [2] were 9.8 ± 0.19 µM and 970 ± 11 nM, respectively. The same compound displayed an ORAC in data set [3] of 2.21 ± 0.09 Trolox equivalents.
Consider `Oc1cc(OCc2ccc(F)c(Cl)c2)ccc1-c1nc2ccccc2s1` [3o, 2-(Benzo[d]thiazol-2-yl)-5-((3-chloro-4-fluorobenzyl)oxy)phenol], for which the inhibition at 10 µM in data set [1] (setting [6]) is 49.9 ± 0.53%. Besides, the IC50 in data set [2] is 521 ± 7 nM. In addition, the ORAC in data set [3] was determined as 2.27 ± 0.05 Trolox equivalents.
On to `O=C1Nc2ccc(Cl)cc2C(c2ccccc2)=NC1O` (centres unmarked) [Oxazepam], for which, in data set [4], the “Pe (Bibl)” value is 1e-05 cm/s.
Turning to `CN1C(C(=O)Nc2ccccn2)=C(O)c2ccccc2S1(=O)=O` [Piroxicam], the “Pe (Bibl)” value in data set [4] is 2.5e-06 cm/s.
Take `C#CCN[C@@H]1CCc2ccccc21` [Rasagiline]: in data set [5], the MAO-B inhibitory mode entry is recorded as “irreversible (irreversible inhibition: MAO-B catalytic activity ≤ 20%)”; the “MAO-B catalytic activity, undialysis group” value is recorded as 2.7%; the “MAO-B catalytic activity, dialysis group” value amounted to 4.2%.
For the compound `C[C@H](NCc1ccc(OCc2cccc(F)c2)cc1)C(N)=O` [Safinamide], the inhibition at 10 µM in data set [1] is 24.9 ± 0.04%. This compound also had an ORAC in data set [3] of 1.12 ± 0.01 Trolox equivalents. In addition, in data set [5], the MAO-B inhibitory mode entry was “reversible (reversible inhibition: MAO-B catalytic activity ≥ 80%)”; the “MAO-B catalytic activity, undialysis group” value is listed as 39.3%; the “MAO-B catalytic activity, dialysis group” value stood at 93.0%.
Consider `Cn1c(=O)c2[nH]cnc2n(C)c1=O` [Theophylline], for which, in data set [4], the “Pe (Bibl)” value is 1.2e-07 cm/s.
